Data taken from patent US20050282743A1, “Molecular interactions in cells” (Arbor Vita Corporation, priority 2001, published 2005).
Peptide text beside a SMILES is read from it. * marks the point of attachment. Biotin = O=C1N[C@H]2[C@H](CS[C@H]2CCCCC(=O)*)N1

Assays:
Type in all cases: binding
[1] = biological target: T1, PDZ-domain polypeptide (GST/PDZ fusion protein) (Homo sapiens, UniProt Q5T2W1); experiment: Apparent affinity (Kd) by titration of PL peptide in the G assay; conditions: Peptide Optimal Conc (Kd by titration of the PL peptide), PDZ PDZK-1, PDZ Domain 2
T1 construct: made in house; host or cells: E. coli (DH5alpha, BL21 or JM109)
Description: (§1) The third column labeled “Peptide Optimal Concentration” in the tables is a number reflective of the binding interaction between the PL protein and PDZ protein. […] The column labeled “Protein Optimal Concentration” refers to the protein concentration used to assay PL interaction (in ug/ml); a ‘0’ is indicative of 5 ug/ml protein concentration; any other value represents the concentration (in ug/ml) used to determine the dissociation constant for a given interaction.
The “A” and “G” assays described supra can be used to determine the “apparent affinity” of binding of a PDZ ligand peptide to a PDZ-domain polypeptide. Apparent affinity is determined based on the concentration of one molecule required to saturate the binding of a second molecule (e.g., the binding of a ligand to a receptor). Two particularly useful approaches for quantitation of apparent affinity of PDZ-ligand binding are provided infra.
In cases where satisfying the above criteria proves difficult, an alternative approach (infra) can be used.
(1) A fixed concentration of a PDZ-domain polypeptide and increasing concentrations of a labeled PL peptide (labeled with, for example, biotin or fluorescein, see TABLE 9 for representative peptide amino acid sequences) are mixed together in solution and allowed to react. In certain assays, peptide concentrations are 0.1 uM, 1 uM, 10 uM, 100 uM, 1 mM. In other assays, appropriate reaction times can range from 10 minutes to 2 days at temperatures ranging from 4° C. to 37° C. In some instances, the identical reaction can also be carried out using a non-PDZ domain-containing protein as a control (e.g., if the PDZ-domain polypeptide is fusion protein, the fusion partner can be used).
(2) PDZ-ligand complexes can be separated from unbound labeled peptide using a variety of methods known in the art.
(3) The PDZ-ligand complex is detected based on presence of the label on the peptide ligand using a variety of methods and detectors known to one of skill in the art. For example, if the label is fluorescein and the separation is achieved using HPSEC, an in-line fluorescence detector can be used. The binding can also be detected as described supra for the G assay.

[2] = biological target: T2, KIAA0807(S) (PDZ Domain 1) (Homo sapiens, UniProt Q6P0Q8); experiment: G' assay and Kd titration, TABLE 12
T2 construct: made in house; host or cells: E. coli (DH5alpha, BL21 or JM109)
T2 sequence (Q6P0Q8 with tags, fused parts or gaps): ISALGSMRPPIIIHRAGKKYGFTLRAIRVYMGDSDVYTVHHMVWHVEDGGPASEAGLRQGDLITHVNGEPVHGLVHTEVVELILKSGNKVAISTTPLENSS
Description: as §1
(§2) Finally, the seventh column labeled “Classification” is another measure of the level of binding. In particular, it provides an absorbance value at 450 nm which indicates the amount of PL peptide bound to the PDZ protein. The following numerical values have the following meanings: ‘1’—A450 nm 0-1; ‘2’—A450 nm 1-2; ‘3’—A450 nm 2-3; ‘4’—A450 nm 3-4; ‘5’—A450 nm of 4 more than 2× repeated; ‘0’—A450 nm 0, i.e., not found to interact. Thus, higher numbers indicate stronger interactions.
For convenience, the assay conditions described in this section are referred to as the “G′ assay” and the “G″ assay,” with the specific conditions described in the preceding section on G assays being referred to as the “G^0 assay.” The “G′ assay” is identical to the “G^0 assay” except at step (2) the peptide concentration is 10 uM instead of 20 uM.

[3] = biological target: T3, PDZ protein (GST-PDZ fusion) (Homo sapiens, UniProt Q9Y566); experiment: G' assay (10 uM PL peptide), results of TABLE 7 and TABLE 12; conditions: PDZ SHANK1, PDZ Domain 1
T3 construct: made in house; host or cells: E. coli (DH5alpha, BL21 or JM109)
Outline: (§3)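 Biotinylated PL peptides at 10 uM (vs 20 uM in G^0 assay) bound to GST-PDZ fusions; PDZ protein at 5 ug/ml unless another concentration listed. Bound peptide read as A450 nm, classified 0–5 (0 = A450 0; 5 = A450 >4 repeated).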

[4] = biological target: T4, PDZ protein (GST-PDZ fusion) (Homo sapiens, UniProt Q5T2W1); experiment: as above; conditions: PDZ PDZK-1, PDZ Domain 2
T4 construct: made in house; host or cells: E. coli (DH5alpha, BL21 or JM109)
T4 sequence (Q5T2W1 1-519): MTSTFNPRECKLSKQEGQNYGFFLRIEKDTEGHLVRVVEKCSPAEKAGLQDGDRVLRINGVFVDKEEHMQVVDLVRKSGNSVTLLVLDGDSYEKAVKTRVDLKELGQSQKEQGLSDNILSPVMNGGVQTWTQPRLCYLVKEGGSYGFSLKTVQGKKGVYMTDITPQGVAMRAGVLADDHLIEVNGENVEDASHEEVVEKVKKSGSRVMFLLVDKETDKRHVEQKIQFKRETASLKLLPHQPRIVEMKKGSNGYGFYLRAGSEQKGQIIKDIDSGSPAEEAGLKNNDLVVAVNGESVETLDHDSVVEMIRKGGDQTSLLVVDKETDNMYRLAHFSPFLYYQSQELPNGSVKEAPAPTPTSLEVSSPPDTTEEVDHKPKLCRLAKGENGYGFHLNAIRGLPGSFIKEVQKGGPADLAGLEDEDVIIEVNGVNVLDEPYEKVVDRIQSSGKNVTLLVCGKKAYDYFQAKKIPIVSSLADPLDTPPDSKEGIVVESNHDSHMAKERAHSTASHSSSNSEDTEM
Outline: as §3

[5] = biological target: T5, PDZ protein (GST-PDZ fusion) (Homo sapiens, UniProt O14745); experiment: as above
T5 construct: made in house; host or cells: E. coli (DH5alpha, BL21 or JM109)
T5 sequence (O14745 1-358): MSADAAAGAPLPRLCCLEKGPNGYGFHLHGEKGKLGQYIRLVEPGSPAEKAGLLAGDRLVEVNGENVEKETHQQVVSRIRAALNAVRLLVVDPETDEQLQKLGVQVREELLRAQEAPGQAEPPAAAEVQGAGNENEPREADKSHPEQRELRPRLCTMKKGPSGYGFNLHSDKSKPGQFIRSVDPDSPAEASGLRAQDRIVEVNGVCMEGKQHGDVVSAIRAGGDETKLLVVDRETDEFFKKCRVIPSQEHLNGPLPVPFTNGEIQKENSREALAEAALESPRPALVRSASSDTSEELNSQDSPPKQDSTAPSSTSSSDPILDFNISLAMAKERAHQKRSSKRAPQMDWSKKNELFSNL
Outline: as §3

[6] = biological target: T6, PDZ protein (GST-PDZ fusion) (Homo sapiens, UniProt Q9BYB0); experiment: as above; conditions: PDZ SHANK3, PDZ Domain 1
T6 construct: made in house; host or cells: E. coli (DH5alpha, BL21 or JM109)
Outline: as §3

[7] = biological target: T7, KIAA807 (Homo sapiens, UniProt Q6P0Q8); experiment: G' assay, TABLE 12; conditions: A450 nm class of biotinylated PL peptide bound; 0 in conc columns = peptide 10 uM, protein 5 ug/ml
T7 construct: made in house; host or cells: E. coli (DH5alpha, BL21 or JM109)
T7 sequence (Q6P0Q8 1104-1192 limits assumed): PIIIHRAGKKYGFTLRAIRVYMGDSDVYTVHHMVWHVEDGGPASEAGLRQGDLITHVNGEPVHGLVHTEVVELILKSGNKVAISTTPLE
Description: as §1, §2
(§4) For convenience, the assay conditions described in this section are referred to as the “G′ assay” and the “G″ assay,” with the specific conditions described in the preceding section on G assays being referred to as the “G^0 assay.” The “G′ assay” is identical to the “G^0 assay” except at step (2) the peptide concentration is 10 uM instead of 20 uM. […] Correspondingly, it slightly increases the certainty that detected interactions are of sufficient affinity and half-life to be of biological importance and useful therapeutic targets.

[8] = biological target: T8, PDZK1 (PDZ Domain 2, 3, 4) (Homo sapiens, UniProt Q5T2W1); experiment: G' assay, TABLE 12; conditions: A450 nm class of biotinylated PL peptide bound; 0 in conc columns = peptide 10 uM, protein 5 ug/ml
T8 construct: When more than one PDZ domain was cloned, the DNA portion cloned represents the PDZ domains and the cDNA portion located between individual domains; made in house; host or cells: E. coli (DH5alpha, BL21 or JM109)
Description: as §1, §2, §4

[9] = biological target: T9, KIAA0561 (PDZ Domain 1) (Homo sapiens, UniProt O60307); experiment: G' assay, TABLE 12; conditions: A450 nm class of biotinylated PL peptide bound; 0 in conc columns = peptide 10 uM, protein 5 ug/ml
T9 construct: made in house; host or cells: E. coli (DH5alpha, BL21 or JM109)
Description: as §1, §2, §4

T9 sequence (O60307 with tags, fused parts or gaps): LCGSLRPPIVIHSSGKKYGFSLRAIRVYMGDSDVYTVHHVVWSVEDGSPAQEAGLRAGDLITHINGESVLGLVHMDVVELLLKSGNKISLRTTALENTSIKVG
T3 sequence (Q9Y566 whole entry, the tested form may be a part): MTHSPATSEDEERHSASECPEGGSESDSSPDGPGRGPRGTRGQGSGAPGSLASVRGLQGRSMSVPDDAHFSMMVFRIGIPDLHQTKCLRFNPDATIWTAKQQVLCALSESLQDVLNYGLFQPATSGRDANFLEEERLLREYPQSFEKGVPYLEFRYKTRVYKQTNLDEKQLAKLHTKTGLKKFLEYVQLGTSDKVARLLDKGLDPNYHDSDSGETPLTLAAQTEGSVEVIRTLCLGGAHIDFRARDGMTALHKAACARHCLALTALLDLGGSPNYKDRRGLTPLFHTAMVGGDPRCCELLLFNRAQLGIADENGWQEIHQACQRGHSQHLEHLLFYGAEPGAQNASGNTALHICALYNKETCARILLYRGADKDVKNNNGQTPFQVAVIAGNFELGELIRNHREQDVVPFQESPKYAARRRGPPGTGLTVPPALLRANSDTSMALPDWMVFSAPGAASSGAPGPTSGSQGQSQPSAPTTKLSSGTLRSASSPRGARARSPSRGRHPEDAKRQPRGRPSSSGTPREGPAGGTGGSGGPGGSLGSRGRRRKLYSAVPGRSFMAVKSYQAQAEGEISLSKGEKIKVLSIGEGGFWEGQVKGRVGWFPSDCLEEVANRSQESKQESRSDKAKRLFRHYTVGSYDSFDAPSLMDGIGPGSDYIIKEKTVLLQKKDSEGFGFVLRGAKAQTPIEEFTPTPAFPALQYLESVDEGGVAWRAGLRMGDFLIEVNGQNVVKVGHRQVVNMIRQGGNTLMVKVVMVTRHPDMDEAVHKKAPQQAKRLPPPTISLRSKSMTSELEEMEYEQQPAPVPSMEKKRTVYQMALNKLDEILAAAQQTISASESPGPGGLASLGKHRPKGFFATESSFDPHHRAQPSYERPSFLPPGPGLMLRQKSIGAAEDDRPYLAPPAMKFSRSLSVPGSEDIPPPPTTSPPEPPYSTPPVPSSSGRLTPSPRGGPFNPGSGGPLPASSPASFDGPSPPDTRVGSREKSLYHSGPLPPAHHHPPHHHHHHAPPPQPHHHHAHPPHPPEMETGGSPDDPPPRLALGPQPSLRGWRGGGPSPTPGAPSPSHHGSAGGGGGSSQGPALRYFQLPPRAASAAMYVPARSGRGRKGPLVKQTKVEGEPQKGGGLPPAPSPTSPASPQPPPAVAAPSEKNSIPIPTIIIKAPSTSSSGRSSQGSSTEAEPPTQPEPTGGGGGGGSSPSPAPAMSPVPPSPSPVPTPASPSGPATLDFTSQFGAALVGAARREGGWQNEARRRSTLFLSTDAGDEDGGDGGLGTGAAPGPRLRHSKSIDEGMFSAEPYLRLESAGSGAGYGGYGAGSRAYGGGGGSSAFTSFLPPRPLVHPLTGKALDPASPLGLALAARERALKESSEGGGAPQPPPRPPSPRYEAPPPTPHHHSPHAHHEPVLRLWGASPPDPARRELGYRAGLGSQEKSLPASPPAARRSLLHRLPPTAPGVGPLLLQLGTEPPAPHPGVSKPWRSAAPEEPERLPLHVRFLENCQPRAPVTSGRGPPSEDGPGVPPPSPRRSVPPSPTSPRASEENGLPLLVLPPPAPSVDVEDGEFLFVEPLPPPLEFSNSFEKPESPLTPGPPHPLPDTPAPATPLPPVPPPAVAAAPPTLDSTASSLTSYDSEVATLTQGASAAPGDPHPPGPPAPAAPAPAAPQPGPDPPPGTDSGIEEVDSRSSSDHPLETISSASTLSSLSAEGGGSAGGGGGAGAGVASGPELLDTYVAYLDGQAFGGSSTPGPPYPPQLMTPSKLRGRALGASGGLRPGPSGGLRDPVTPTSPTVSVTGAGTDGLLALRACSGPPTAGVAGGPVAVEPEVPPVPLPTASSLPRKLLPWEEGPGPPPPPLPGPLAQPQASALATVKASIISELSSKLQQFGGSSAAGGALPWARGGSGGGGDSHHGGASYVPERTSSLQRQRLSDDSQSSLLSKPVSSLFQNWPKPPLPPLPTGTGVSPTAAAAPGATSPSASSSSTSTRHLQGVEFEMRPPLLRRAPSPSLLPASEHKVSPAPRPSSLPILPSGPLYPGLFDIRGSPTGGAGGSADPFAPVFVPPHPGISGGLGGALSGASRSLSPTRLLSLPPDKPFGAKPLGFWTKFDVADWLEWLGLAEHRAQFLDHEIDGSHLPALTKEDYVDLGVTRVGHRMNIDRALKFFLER
T6 sequence (Q9BYB0 whole entry, the tested form may be a part): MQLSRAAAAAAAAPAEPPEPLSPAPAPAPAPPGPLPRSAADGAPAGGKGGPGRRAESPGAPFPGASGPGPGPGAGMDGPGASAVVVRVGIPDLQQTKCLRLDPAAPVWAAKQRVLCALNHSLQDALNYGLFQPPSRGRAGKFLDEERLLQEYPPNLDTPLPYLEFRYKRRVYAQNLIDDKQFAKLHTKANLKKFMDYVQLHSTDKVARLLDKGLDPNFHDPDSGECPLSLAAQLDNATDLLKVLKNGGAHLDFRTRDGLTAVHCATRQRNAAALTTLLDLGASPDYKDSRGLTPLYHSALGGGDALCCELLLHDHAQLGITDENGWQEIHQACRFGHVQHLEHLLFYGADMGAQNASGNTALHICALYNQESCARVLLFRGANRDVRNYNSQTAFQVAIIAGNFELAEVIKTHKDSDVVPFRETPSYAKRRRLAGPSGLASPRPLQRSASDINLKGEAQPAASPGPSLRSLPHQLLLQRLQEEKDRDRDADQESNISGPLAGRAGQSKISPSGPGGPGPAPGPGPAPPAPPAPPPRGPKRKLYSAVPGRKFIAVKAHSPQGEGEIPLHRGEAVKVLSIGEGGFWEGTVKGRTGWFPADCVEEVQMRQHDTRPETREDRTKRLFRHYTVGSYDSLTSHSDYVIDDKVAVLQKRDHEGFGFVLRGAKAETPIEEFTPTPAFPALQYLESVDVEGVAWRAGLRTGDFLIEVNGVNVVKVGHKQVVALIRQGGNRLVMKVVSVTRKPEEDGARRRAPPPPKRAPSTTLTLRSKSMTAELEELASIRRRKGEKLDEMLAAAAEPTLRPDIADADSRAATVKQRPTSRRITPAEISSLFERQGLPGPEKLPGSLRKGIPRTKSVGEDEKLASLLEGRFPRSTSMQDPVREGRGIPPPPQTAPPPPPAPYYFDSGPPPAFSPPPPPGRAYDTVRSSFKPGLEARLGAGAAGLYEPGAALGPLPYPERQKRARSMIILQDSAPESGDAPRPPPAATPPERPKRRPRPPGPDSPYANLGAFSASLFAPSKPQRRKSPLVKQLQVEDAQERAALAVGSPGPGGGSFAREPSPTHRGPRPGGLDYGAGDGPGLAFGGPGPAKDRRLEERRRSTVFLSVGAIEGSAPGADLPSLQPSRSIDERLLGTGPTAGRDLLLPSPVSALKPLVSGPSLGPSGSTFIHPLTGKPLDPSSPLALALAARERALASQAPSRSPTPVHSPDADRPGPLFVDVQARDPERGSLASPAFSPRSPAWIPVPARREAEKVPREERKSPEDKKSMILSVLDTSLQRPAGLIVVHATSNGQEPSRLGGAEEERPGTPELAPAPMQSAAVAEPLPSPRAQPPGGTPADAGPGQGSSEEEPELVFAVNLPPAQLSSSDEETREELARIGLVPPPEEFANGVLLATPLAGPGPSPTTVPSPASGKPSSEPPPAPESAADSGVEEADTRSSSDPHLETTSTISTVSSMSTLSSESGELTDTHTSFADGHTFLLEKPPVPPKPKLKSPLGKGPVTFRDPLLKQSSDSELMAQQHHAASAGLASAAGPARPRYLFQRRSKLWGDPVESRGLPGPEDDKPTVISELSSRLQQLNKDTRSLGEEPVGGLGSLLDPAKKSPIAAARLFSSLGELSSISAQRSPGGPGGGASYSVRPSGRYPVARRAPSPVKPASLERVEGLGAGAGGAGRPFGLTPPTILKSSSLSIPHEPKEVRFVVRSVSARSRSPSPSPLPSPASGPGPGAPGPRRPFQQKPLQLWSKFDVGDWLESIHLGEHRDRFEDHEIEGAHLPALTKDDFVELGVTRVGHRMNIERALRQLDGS

With `CC(C)C[C@H](NC(=O)[C@H](CO)NC(=O)[C@H](CO)NC(=O)[C@H](CCCNC(=N)N)NC(=O)[C@H](CCCNC(=N)N)NC(=O)[C@H](Cc1c[nH]c2ccccc12)NC(=O)[C@H](CO)NC(=O)[C@@H]1CCCN1C(=O)CCCC[C@@H]1SC[C@@H]2NC(=O)N[C@@H]21)C(=O)N[C@@H](CO)C(=O)N[C@@H](CCC(=O)O)C(=O)N[C@@H](CO)C(=O)N[C@@H](CCC(=O)O)C(=O)N[C@@H](CC(N)=O)C(=O)N[C@@H](C)C(=O)N[C@H](C(=O)N[C@@H](CO)C(=O)N[C@@H](CC(C)C)C(=O)N[C@H](C(=O)N[C@H](C(=O)N[C@@H](Cc1ccccc1)C(=O)O)[C@@H](C)O)[C@@H](C)O)[C@@H](C)O` [BLR-1] (Biotin-PSWRRSSLSESENATSLTTF-OH; C-terminus assumed) the Kd [1] was 2 µM, the Kd [2] was 1 µM and the Classification ([2]; A450 nm class of biotinylated PL peptide bound, 0 in conc columns = peptide 10 uM, protein 5 ug/ml) was 2 (A450 nm 1-2). The Classification [3] was 3 (A450 nm 2-3), the Classification [4] was 1 (A450 nm 0-1) and the Classification ([5]; PDZ EBP50, PDZ Domain 1) was 3 (A450 nm 2-3). For the same compound, the Classification ([5]; PDZ EBP50, PDZ Domain 2) was 3 (A450 nm 2-3), the Classification [6] was 3 (A450 nm 2-3) and the Classification [7] was 2 (A450 nm 1-2). The Classification [8] was 1 (A450 nm 0-1) and the Classification [9] was 1 (A450 nm 0-1).
